Results reported in PMC9818021, “Targets, Mechanisms and Cytotoxicity of Half-Sandwich Ir(III) Complexes Are Modulated by Structural Modifications on the Benzazole Ancillary Ligand” (Cancers, 2022).

Experiments:
plasmid DNA (pUC18) = experiment: Agarose gel electrophoresis of plasmid DNA; assay type: binding, Escherichia coli; details: pUC18 20 µM, overnight 37 °C
Experimental: Agarose Gel electrophoresis of plasmid DNA Overnight cultures of the strain DH5α of Escherichia coli were isolated with the Quiagen DNA purification kit. Then, 20 µM (in base pairs) of plasmid DNA (pUC18) was incubated with different concentrations of the synthesized iridium complexes overnight at 37 °C. Afterwards, 2 μL of loading buffer were added to 10 μL of the incubated samples and loaded onto a 1% agarose gel. Electrophoresis was run in TAE 1× at 6.5 V/cm during 2.5 h. Then, the agarose gel was stained with ethidium bromide 1 μg/mL and visualized with a Gel Doc XR+ Imaging System (Bio-Rad, Hercules, CA, USA).

A549 cells [1] = experiment: Protein synthesis (Click-iT OPP); assay type: cell-based, human; details: 16 µM, 6 h
Experimental: (§1) DNA damage was measured using EpiQuik 8-OHdG DNA Damage Quantification Direct Kit (colorimetric) (Fischer, Waltham, MA, USA, P600396); The mitochondrial cytochrome C release was evaluated using the “Millipore’s FlowCellect Cytochrome C Kit (Millipore, FCCH100110)”. Lactate dehydrogenase activity release was measured in the culture medium using Cytotoxicity Detection Kit (Roche Diagnostic, Barcelona, Spain, 11 644 793 001). Protein synthesis was determined using Click-iT Plus O-propargyl-puromycin (OPP) Protein Synthesis Assay Kit (Invitrogen™, Waltham, MA, USA). Measurement of GSH/GSSG was determined with GSH/GSSG-Glo Assay (Promega, V6611). Measurements of OCR and ECAR with Seahorse XFp (Agilent Technologies) were determined using the XFp Cell Mito Stress Test Kit (103010-100) and XFp Glycolysis Stress Test Kit (103017-100). ATP measurement was determined with Cell Titer-Glo Luminescent Cell Viability Assay (Promega, Madison, WI, USA, G7570). Determination of DNA damage using phosphorylated H2AX measurement were performed as previously described. Cardiolipin oxidation using the fluorophore Nonyl Acridine Orange (NAO, Thermo Scientific, A1372) was performed as described. Cell viability was determined by Hoechst inclusion and Propidium iodide (PI) exclusion by standard protocols. TEM analysis were performed as described. […]

A549 cells [2] = experiment: GSH/GSSG-Glo assay; assay type: cell-based, human; details: 1 h
Experimental: as §1

A549 cells [3] = experiment: Cell cycle analysis by flow cytometry; assay type: cell-based, human; details: 8 µM, 24 h, PI staining
Experimental: as §1

caspases 3/7 = experiment: Caspase 3/7 detection (CellEvent); assay type: cell-based, human; details: A549, 16 µM, up to 24 h
Experimental: Specific assays with 1[C,NH] complex were performed according to manufacturer’s instructions using the following reagents from Molecular Probes (Thermo Fisher Scientific): Measurements of ROS: Dihydroethidium (DHE, D11347) and 2′, 7′-dichlorodihydrofluorescein diacetate (H2DCFDA, D399); detection of caspases 3/7: CellEvent Caspase-3/7 Green Detection Reagent (C10423); Cell viability: Live/Dead Cell Imaging Kit (R37601); Analysis of cytosolic calcium concentration: Fluo3/AM (F23915); Analysis of MMP: Tetramethylrhodamine methyl ester perchlorate (TMRM, T668). RT-qPCR’s assays were performed with the following primers/probes from Thermo Fisher Scientific: DCP1A (Hs00218198-m1), FOSB (Hs00171851-m1), EGR1(Hs0015928-m1), ATF3 (Hs00231069-m1), DDIT3 (Hs00358796-g1), PP1R15A (Hs00169585-m1), CHAC1(Hs00225520-m1), MIR9-1 (Hs04231512-s1), ATP1B2 (Hs00155922-m1), BBC3 (Hs00248075-m1), BCL2L11 (Hs00798019-s1), PMAIP1 (Hs00560402-m1), SKP2 (Hs01021864-m1) and HIST1H1B (Hs00271207-s1). RT-qPCR experiments were performed as described.

[4] = system: gene expression (stress response, apoptosis, cell cycle genes); experiment: Microarray differential gene expression (Affymetrix Human Gene 2.1 ST); assay type: cell-based; details: vs. Control, 6 h after treatment
Experimental: (§2) DNA damage was measured using EpiQuik 8-OHdG DNA Damage Quantification Direct Kit (colorimetric) (Fischer, Waltham, MA, USA, P600396); The mitochondrial cytochrome C release was evaluated using the “Millipore’s FlowCellect Cytochrome C Kit (Millipore, FCCH100110)”. Lactate dehydrogenase activity release was measured in the culture medium using Cytotoxicity Detection Kit (Roche Diagnostic, Barcelona, Spain, 11 644 793 001). Protein synthesis was determined using Click-iT Plus O-propargyl-puromycin (OPP) Protein Synthesis Assay Kit (Invitrogen™, Waltham, MA, USA). Measurement of GSH/GSSG was determined with GSH/GSSG-Glo Assay (Promega, V6611). Measurements of OCR and ECAR with Seahorse XFp (Agilent Technologies) were determined using the XFp Cell Mito Stress Test Kit (103010-100) and XFp Glycolysis Stress Test Kit (103017-100). ATP measurement was determined with Cell Titer-Glo Luminescent Cell Viability Assay (Promega, Madison, WI, USA, G7570). Determination of DNA damage using phosphorylated H2AX measurement were performed as previously described. Cardiolipin oxidation using the fluorophore Nonyl Acridine Orange (NAO, Thermo Scientific, A1372) was performed as described. Cell viability was determined by Hoechst inclusion and Propidium iodide (PI) exclusion by standard protocols. TEM analysis were performed as described. Cell cycle analysis by flow cytometry and microarrays analysis were performed as described. Arrays data have been deposited in the ArrayExpress database at EMBL-EBI (www.ebi.ac.uk/arrayexpress) under accession number E-MTAB-860 (10 November 2022)
Studies of the effect of 1[C,NH] on gene expression were performed and assessed 6 h after treatment, in a middle phase, when most cells were still alive (see S.I. Movie S2) but already with characteristic morphological features of apoptosis (Movie S1). Gene expression profiles of cells was determined by Affymetrix Human Gene 2.1 ST Array Plate in three independent experiments. In order to confirm the microarray data, we selected some genes involved in several key pathways: stress response, apoptosis and cell cycle to validate the changes in the expression by RT-qPCR. Results indicated a good correlation between microarray analysis and RT-qPCR. (Table S11). […] Note that not all genes are annotated with these databases. However, the negative regulation of metabolic process and negative regulation of macromolecule metabolic process are highly represented, and ~38% (84) of all genes could be classified in this way. […] The effect of 1[C,NH] on cell cycle progression was further assessed by flow cytometry. […] In summary, mRNA expression analysis is in good agreement with the elevation of ROS, oxidative stress response, cell cycle arrest and induction of apoptosis.

A549 cells [5] = experiment: Cytochrome c release (FlowCellect kit); assay type: cell-based, human; details: 5 h
Experimental: as §1

A549 cells [6] = experiment: Seahorse XFp Cell Mito Stress Test (OCR); assay type: cell-based, human; details: 16 µM, A549, 1 h
Experimental: as §2

Cc1c(C)c(C)[c-](C)c1C.[Cl][Ir]1[c]2ccccc2-c2[nH]c3ccccc3[n+]21 [1[C,NH], [(η^5-Cp*)IrCl(κ^2-N,C-pbim)]]
Migration pattern of plasmid DNA (plasmid DNA (pUC18)): unable to interact with DNA | Inhibition of total protein synthesis (A549 cells [1]): around 60% | GSH/GSSG ratio (A549 cells [2]): decreased the GSH/GSSG ratio | Cell cycle distribution (A549 cells [3]): percentage of cells in G0/G1 phase increased and cells in G2/M phase decreased | Caspase 3/7 activity (caspases 3/7): induced caspase 3/7 activation | ATF3 Microarray (Fold Change (linear)) [4]: 37 | ATP1B2 Microarray (Fold Change (linear)) [4]: 34.8 | BBC3 Microarray (Fold Change (linear)) [4]: 3.3 | BCL2L11 Microarray (Fold Change (linear)) [4]: 5.1 | CHAC1 Microarray (Fold Change (linear)) [4]: 3 | DDIT3 Microarray (Fold Change (linear)) [4]: 23 | EGR1 Microarray (Fold Change (linear)) [4]: > 100 | FOSB Microarray (Fold Change (linear)) [4]: > 100 | HIST1H1B Microarray (Fold Change (linear)) [4]: -6.6 | MIR9-1 Microarray (Fold Change (linear)) [4]: 26.8 | PMAIP1 Microarray (Fold Change (linear)) [4]: 7.1 | PPP1R15A Microarray (Fold Change (linear)) [4]: 11 | SKP2 Microarray (Fold Change (linear)) [4]: -4.7 | Cytochrome c release (A549 cells [5]): increased Cyt c release | ATP Production, OCR, Mean (A549 cells [6]): 7.77 pmol/min | Basal Respiration, OCR, Mean (A549 cells [6]): 57.35 pmol/min | Coupling Efficiency, Mean (A549 cells [6]): 13.65 | Maximal Respiration, OCR, Mean (A549 cells [6]): 47.24 pmol/min | Non-Mitochondrial Oxygen Consumption, OCR, Mean (A549 cells [6]): 26.35 pmol/min | Proton Leak, OCR, Mean (A549 cells [6]): 49.58 pmol/min | Spare Respiratory Capacity as a %, Mean (A549 cells [6]): 80.93% | Spare Respiratory Capacity, OCR, Mean (A549 cells [6]): 0.27 pmol/min

Cc1c(C)c(C)[c-](C)c1C.Cn1c2[n+](c3ccccc31)[Ir]([Cl])[c]1ccccc1-2 [2[C,NMe], [(η^5-Cp*)IrCl(κ^2-N,C-NMepbim)]]
Migration pattern of plasmid DNA (plasmid DNA (pUC18)): unable to interact with DNA
